Patent US6063788A, “Bicyclic-fused pyridines” (Bayer Aktiengesellschaft, priority 1996, dated 2000)

What was measured:
[1] = system: CETP; experiment: Ex vivo activity: CETP activity in serum of treated hamsters; parameters: species or system Syrian golden hamsters; conditions: hamster serum; for ED50 (ex vivo activity): up to 24 hours after administration
Description: Ex Vivo Activity of the Compounds According to the Invention
Syrian golden hamsters from in-house breeding are anaesthetized after fasting for 24 hours (0.8 mg/kg of atropine, 0.8 mg/kg of Ketavet® s.c., 30' later 50 mg/kg of Nembutal i.p.). The jugular vein is then exposed and cannulated. The test substance is dissolved in a suitable solvent (as a rule Adalat placebo solution: 60 g of glycerol, 100 ml of H2 O, PEG-400 to 1000 ml) and administered to the animals via a PE catheter inserted in the jugular vein. The control animals receive the same volume of solvent without test substance. The vein is then tied off and the wound is closed. The administration of the test substances can also be carried out p.o., by orally administering the substances dissolved in DMSO and suspended in 0.5% Tylose by means of a stomach tube. The control animals receive identical volumes of solvent without test substance.
After various times--up to 24 hours after administration--blood (about 250 μl) is taken from the animals by puncture of the retro-orbital venous plexus. Clotting is ended by incubation at 4° C. overnight, then centrifugation is carried out at 6000×g for 10 minutes. In the serum thus obtained, CETP activity is determined by the modified CETP test. As for the CETP test described above, the transfer of ^3 H-cholesterol ester from HD lipoproteins to biotinylated LD lipoproteins is measured.
The reaction is ended by addition of Streptavidin-SPA® beads (Amersham) and the transferred radioactivity is determined directly in the liquid scintillation counter.
The test mixture is carried out as described under "CETP test". For the testing of the serum, only 10 μl of CETP are replaced by 10 μl of the corresponding serum samples. As controls, corresponding incubations with sera of untreated animals are used.
The activity transferred in the control mixtures with control sera is rated as 100% transfer. The substance concentration at which this transfer is reduced to a half is indicated as the ED50 value.

[2] = target: T1, cholesterol ester transfer protein (CETP) (Homo sapiens, UniProt P11597); experiment: CETP inhibition testing (transfer of 3H-cholesterol ester from HDL to biotinylated LDL); format: biochemical; conditions: substance concentration at which transfer is reduced by half; 18 h at 37° C.
T1 construct: CETP is obtained from human plasma in partially purified form; from tissue; host or cells: human plasma (partially purified by centrifugation, phenyl-Sepharose, CM-Sepharose, Mono Q)
T1 sequence (P11597 18-493): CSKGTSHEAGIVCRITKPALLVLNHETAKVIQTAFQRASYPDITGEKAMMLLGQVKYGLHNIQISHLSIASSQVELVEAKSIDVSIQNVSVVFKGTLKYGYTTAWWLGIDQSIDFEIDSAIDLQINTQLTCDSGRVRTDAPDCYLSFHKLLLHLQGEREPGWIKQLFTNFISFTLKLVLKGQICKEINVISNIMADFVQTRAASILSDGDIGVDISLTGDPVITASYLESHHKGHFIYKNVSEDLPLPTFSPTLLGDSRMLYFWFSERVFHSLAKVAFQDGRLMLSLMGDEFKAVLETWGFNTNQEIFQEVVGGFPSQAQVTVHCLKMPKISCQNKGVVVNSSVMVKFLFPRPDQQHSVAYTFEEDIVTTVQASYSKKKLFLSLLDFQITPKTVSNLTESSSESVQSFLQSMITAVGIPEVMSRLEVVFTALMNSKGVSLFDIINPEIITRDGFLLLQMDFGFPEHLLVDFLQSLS
Description: CETP is obtained from human plasma in partially purified form by differential centrifugation and column chromatography and used for the test. To this end, human plasma is adjusted to a density of 1.21 g per ml using NaBr and centrifuged at 4° C. for 18 h at 50,000 rpm. The bottom fraction (d>1.21 g/ml) is applied to a Sephadex®phenyl-sepharose 4B (Pharmacia) column, washed with 0.15 M NaCl/0.001 M trisHCl pH 7.4 and then eluted with distilled water. The CETP-active fractions are pooled, dialysed against 50 mM Na acetate pH 4.5 and applied to a CM-Sepharose® (Pharmacia) column. The column is then eluted using a linear gradient (0-1 M NaCl). The pooled CETP fractions are dialysed against 10 mM tris HCl pH 7.4 and then further purified by chromatography on a Mono Q® column (Pharmacia).
Obtainment of radiolabelled HDL
50 ml of fresh human EDTA plasma are adjusted to a density of 1.12 using NaBr and centrifuged at 50,000 rpm for 18 h at 4° C. in a Ty 65 rotor. The upper phase is used to obtain cold LDL. The lower phase is dialysed against 3×4 l of PDB buffer (10 mM tris/HCl pH 7.4, […], 1 mM EDTA, 0.02% NaN3). 20 μl of ^3 H-cholesterol (Dupont NET-725; 1 μC/μl dissolved in ethanol!) are then added per 10 ml of retentate volume and the mixture is incubated under N2 at 37° C. for 72 h. […]
To test the CETP activity, the transfer of ^3 H-cholesterol ester from human HD lipoproteins to biotinylated LD lipoproteins is measured.
The reaction is ended by addition of streptavidin-SPA®beads (Amersham) and the transferred radioactivity is determined directly in a liquid scintillation counter.
In the test mixture, 10 μl of HDL-^3 H-cholesterol ester (~50,000 cpm) are incubated at 37° C. for 18 h with 10 μl of biotin-LDL (Amersham) in 50 mM Hepes/0.15 M NaCl/0.1% bovine serum albumin/0.05% NaN3 pH 7.4 with 10 μl of CETP (1 mg/ml) and 3 μl of solution of the substance to be tested (dissolved in 10% DMSO/1% RSA). 200 μl of the SPA-streptavidin bead solution (TRKQ 7005) are then added, the mixture is incubated further for 1 h with shaking and then measured in the scintillation counter. […]

[3] = system: transgenic hCETP mice; experiment: In vivo activity in transgenic hCETP mice; conditions: 100 ppm in the feed; one week
Description: In Vivo Activity in Transgenic hCETP Mice
Transgenic mice from in-house breeding (Dinchuck, Hart, Gonzalez, Karmann, Schmidt, Wirak; BBA (1995), 1295, 301) were administered the substances to be tested in the feed. Before the start of the experiment, blood was taken retro-orbitally from the mice in order to determine cholesterol and triglycerides in the serum. The serum was obtained as described above for hamsters by incubation at 4° C. overnight and subsequent centrifugation at 6000×g. After one week, blood was again taken from the mice in order to determine lipoproteins and triglycerides. The change in the parameters measured is expressed as a percentage change compared with the starting value.

[4] = system: HDL cholesterol; experiment: In vivo activity: oral action on lipoproteins (HDL rise) in hamsters; parameters: species or system Syrian golden hamsters; conditions: Dose 2 × 10 mg/kg, hamster, up to 24 hours
Description: In Vivo Activity of the Compounds According to the Invention
In experiments to determine the oral action on lipoproteins and triglycerides, test substance dissolved in DMSO and 0.5% Tylose suspended by means of a stomach tube are administered orally to Syrian golden hamsters from in-house breeding. To determine the CETP activity, blood (about 250 μl) is taken by retro-orbital puncture before the start of the experiment. The test substances are then administered orally by means of a stomach tube. The control animals receive identical volumes of solvents without test substance. The feed is then withdrawn from the animals and blood is taken at various times--up to 24 hours after substance administration--by puncture of the retro-orbital venous plexus.
Clotting is ended by incubation at 4° C. overnight, then centrifugation at 6000×g is carried out for 10 minutes. In the serum thus obtained, the content of cholesterol and triglycerides is determined with the aid of modified commercially available enzyme tests (cholesterol enzymatic 14366 Merck, triglycerides 14364 Merck). Serum is suitably diluted using physiological saline solution.
100 μl of serum dilution are mixed with 100 μl of […] in 96-hole plates and incubated at room temperature for 10 minutes. The optical density is then determined at a wavelength of 492 nm using an automatic plate-reading apparatus. The triglyceride or cholesterol concentration contained in the samples is determined with the aid of a standard curve measured in parallel.
The determination of the content of HDL cholesterol is carried out according to the manufacturer's instructions after precipitation of the ApoB-containing lipoproteins by means of a reagent mixture (Sigma 352-4 HDL cholesterol reagent).

| IC50 [2] [nM] | Structure (SMILES) | % Inhibition at 10 mg/kg [1] [%] | ED50 (ex vivo activity) [1] [mg/kg] | % HDL rise [4] [%] | further results |
| --- | --- | --- | --- | --- | --- |
| – | O=C1c2cccc(F)c2-c2nc(C3CCCC3)c(C(F)c3ccc(C(F)(F)F)cc3)c(-c3ccc(F)cc3)c21 (stereo not drawn) [Example 29] | 17.2 | > 10 | – | – |
| 60 | CC(C)c1nc2c(c(-c3ccc(F)cc3)c1C(F)c1ccc(C(F)(F)F)cc1)C(O)c1ccccc1-2 (stereo not drawn) [Example 14] | 64.0 | < 10 | – | HDL (percentage change compared with the starting value) [3]: 22.0%; LDL (percentage change compared with the starting value) [3]: -10.5%; Triglyceride (percentage change compared with the starting value) [3]: -9.7% |
| – | OC1c2ccccc2-c2nc(C3CCCC3)c(C(F)c3ccc(C(F)(F)F)cc3)c(-c3ccc(F)cc3)c21 (stereo not drawn) [Example 18] | – | – | 3.3 | – |
| 300 | CC(C)c1nc2c(c(-c3ccc(F)cc3)c1C(F)c1ccc(C(F)(F)F)cc1)C(O)c1cc(Cl)c(Cl)cc1-2 (stereo not drawn) [Example 27] | – | – | – | – |
| 240 | OC(c1ccc(Cl)c(C(F)(F)F)c1)c1c(C2CCCC2)nc2c(c1-c1ccc(F)cc1)C(O)c1ccccc1-2 (stereo not drawn) [Example 22] | – | – | – | – |
| – | O=C(c1ccc(C(F)(F)F)cc1)c1c(C2CCCC2)nc2c(c1-c1ccc(F)cc1)C(O)c1ccccc1-2 (stereo not drawn) [Example 19] | 46.0 | > 10 | 17.1 | – |
| – | OC1c2ccccc2-c2nc(C3CCCC3)c(Cc3ccc(C(F)(F)F)cc3)c(-c3ccc(F)cc3)c21 (stereo not drawn) [Example 20] | – | – | 11.14 | – |
